Data on one molecule can be found in article PMC11964921 (npj Drug Discovery, 2025).

Molecules are shown by their SMILES. Bounds are passed on as bounds.

The subject of test [1] is M. tuberculosis multi-drug-resistant clinical strains. The experiment in a line: microbe, parasite or virus in culture. It counts as cell-based. The conditions noted are these: for MIC: Mycobacterium tuberculosis.
The subject of test [2] is M. tuberculosis H37Rv-ΔcydAB. On the set-up: species or system mouse (Balb/cBy). The conditions noted are these: mouse, in vivo.

Take `CCc1nc2ccc(Cl)cn2c1C(=O)NCc1ccc(C2CC3(C2)CN(S(=O)(=O)C(F)(F)F)C3)cc1` [JNJ-2901]: the MIC is less than 1 nM in test [1] (all 18 clinical strains); not above 0.5 ng/mL in test [1] (all 18 clinical strains, Middlebrook 7H9 medium); not above 0.5 ng/mL in test [1] (strain 661706043123, resistant to INH, PAS); not above 0.5 ng/mL in test [1] (strain 661710016056, resistant to INH, S, PAS); not above 0.5 ng/mL in test [1] (strain 661904036200, resistant to INH, PAS); not above 0.5 ng/mL in test [1] (strain 661906047849, resistant to INH, RIF, S, PZA, ETH, PAS, EMB, CYC). Moreover, the MIC was not above 0.5 ng/mL in test [1] (strain 661907010966, resistant to INH, RIF, S, PAS, EMB, PZA, CYC, AMK, KAN, CAP, ETH); not above 0.5 ng/mL in test [1] (strain 661908012994, resistant to INH, RIF, S, PZA, PAS, ETH); not above 0.5 ng/mL in test [1] (strain 661911031781, resistant to INH, RIF, S, PAS, CYC, ETH, KAN); not above 0.5 ng/mL in test [1] (strain 661911038007, resistant to INH, RIF, S, PAS); not above 0.5 ng/mL in test [1] (strain 662001006107, resistant to INH, RIF, PZA, S, PAS, CYC, ETH, FQL); not above 0.5 ng/mL in test [1] (strain 662001039167, resistant to INH, RIF, S, PAS, EMB, PZA, CYC, KAN). In addition, the MIC in test [1] (strain 662001071666, resistant to INH, RIF, S, PAS, PZA, EMB, ETH) is not above 0.5 ng/mL; in test [1] (strain 662003052840, resistant to INH, EMB, PZA, S, CYC, PAS, ETH) it was not above 0.5 ng/mL; in test [1] (strain 662004032055, resistant to INH, RIF, S, PAS, ETH), not above 0.5 ng/mL; in test [1] (strain 662008015398, resistant to INH, RIF, S, PAS, EMB, PZA, ETH) it was not above 0.5 ng/mL; in test [1] (strain 662012006551, resistant to INH, PAS, PZA, ETH (LNZ geno)), not above 0.5 ng/mL; in test [1] (strain 662101040833, resistant to INH, RIF, PZA, S, PAS, EMB, ETH, KAN, CAP, AMK, CYC) it was not above 0.5 ng/mL. Moreover, the MIC was not above 0.5 ng/mL in test [1] (strain 662105041666, resistant to INH, RIF, S, PZA, EMB, FQL, ETH, CYC, PAS) and not above 0.5 ng/mL in test [1] (strain 662108038389, resistant to INH, RIF, S, PAS). In addition, in test [1] (clinical multidrug-resistant M. tuberculosis strains), the “concentration of growth inhibition (in words)” value is “sub-nanomolar”. In test [2], the “reduction in bacterial burden / lung CFU” value turned out to be 4 log.
